Activity calls are given as the source filed them.
What was measured:
[1] = target: Voltage-gated inwardly rectifying potassium channel KCNH2 (Homo sapiens, UniProt Q12809); conditions: Potency;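 note: confirmatory quantitative high-throughput screen measuring inhibition of hERG channel activity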
HeLa = test: HeLa cell cytotoxicity, dose response, cytotoxicity control for MITF activator project, CellTiter-Glo luminescence, cherry-pick samples (AID 540259); format: functional, cell-based; conditions: Homo sapiens
[2] = NIH-3T3 fibroblast cytotoxicity, dose response, cytotoxicity control, cell-based, fluorescence, Alamar Blue, secondary assay (AID 2327); format: functional;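 note: NIH-3T3 mouse fibroblasts cultured with fluconazole at 8 µg/mL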
[3] = target: Serine/threonine-protein phosphatase (Candida dubliniensis (strain CD36 / CBS 7987 / NCPF 3949 / NRRLY-17841) (Yeast), UniProt B9W6M3); test: calcineurin pathway inhibitors in yeast reporter, dose response, S. cerevisiae, CDRE-lacZ, luminescence, secondary (AID 2388); format: functional, cell-based;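 note: yeast reporter cells carrying a calcineurin-responsive lacZ construct stimulated with calcium chloride; luminescent beta-galactosidase reporter signal in whole cells rather than isolated phosphatase activity; potency for inhibition where a drop in reporter signal means calcineurin blockade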
[4] = target: ATP-dependent molecular chaperone HSP82 (Candida albicans (strain WO-1) (Yeast), UniProt C4YTQ8); test: loss of DOC-induced GRE-beta-galactosidase reporter signal, dose response, Hsp90 inhibitor project, S. cerevisiae, luminescence (AID 2400); format: functional, cell-based;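 note: beta-galactosidase luminescence from glucocorticoid response element reporter as proxy for Hsp90 function; inhibitor potency where signal loss means Hsp90 inhibition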
[5] = C. albicans growth with fluconazole, confirmation, fluorescence, retest (AID 2467); format: functional, cell-based
[6] = HepG2 cell cytotoxicity, dose response, cytotoxicity control for non-replicating M. tuberculosis project (AID 489018); format: functional; conditions: Mycobacterium tuberculosis
[7] = inhibitors of intracellular T. cruzi replication, confirmation, NIH3T3 host cells, beta-gal luminescence (AID 2044); format: functional, cell-based;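 note: intracellular parasites grown in NIH/3T3 mouse fibroblasts as host cells; luminescent beta-galactosidase reporter signal from transgenic T. cruzi replicating inside host cells; inhibitors lower the luminescence signal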
[8] = target: T1, Short transient receptor potential channel 4 (Mus musculus, UniProt Q9QUQ5); test: mouse TRPC4 channel activators, dose response, cell-based, HEK293 TRPC4/mu-opioid, Fluo-4 calcium (AID 434937); format: functional
T1 sequence (Q9QUQ5 whole entry): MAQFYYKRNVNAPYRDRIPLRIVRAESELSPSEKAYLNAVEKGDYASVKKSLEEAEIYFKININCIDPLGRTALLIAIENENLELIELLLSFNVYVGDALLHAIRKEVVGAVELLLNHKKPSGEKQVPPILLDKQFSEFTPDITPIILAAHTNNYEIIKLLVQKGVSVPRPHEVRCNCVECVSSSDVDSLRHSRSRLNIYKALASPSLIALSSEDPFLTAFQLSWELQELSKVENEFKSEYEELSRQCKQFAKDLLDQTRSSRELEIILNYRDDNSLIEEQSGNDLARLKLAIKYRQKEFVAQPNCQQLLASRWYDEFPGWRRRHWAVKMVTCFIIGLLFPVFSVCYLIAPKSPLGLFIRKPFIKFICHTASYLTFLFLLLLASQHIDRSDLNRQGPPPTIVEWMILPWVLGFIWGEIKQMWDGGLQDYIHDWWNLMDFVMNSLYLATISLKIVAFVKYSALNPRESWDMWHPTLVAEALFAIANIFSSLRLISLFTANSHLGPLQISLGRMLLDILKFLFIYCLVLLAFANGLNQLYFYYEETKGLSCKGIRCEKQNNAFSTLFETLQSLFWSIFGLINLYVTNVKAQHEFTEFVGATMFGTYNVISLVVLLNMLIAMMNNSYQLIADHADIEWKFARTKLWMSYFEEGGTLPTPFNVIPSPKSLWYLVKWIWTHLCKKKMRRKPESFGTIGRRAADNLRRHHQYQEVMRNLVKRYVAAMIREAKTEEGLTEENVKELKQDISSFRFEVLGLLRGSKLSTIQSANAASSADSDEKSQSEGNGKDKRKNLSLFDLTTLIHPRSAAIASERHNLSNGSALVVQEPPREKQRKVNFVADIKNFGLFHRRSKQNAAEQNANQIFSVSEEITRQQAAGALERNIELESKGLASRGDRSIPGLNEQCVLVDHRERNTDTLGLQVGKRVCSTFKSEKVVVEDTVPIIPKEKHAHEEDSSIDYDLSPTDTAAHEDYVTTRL

[9] = target: 5-hydroxytryptamine receptor 5A (Homo sapiens, UniProt P47898); test: Counterscreen for agonists of OPRM1-OPRD1 heterodimerization: luminescence-based cell-based high throughput dose response assay to identify agonists of 5-hydroxytryptamine (serotonin) 5A receptor (HTR5A). [Related pubchem assays (depositor defined):AID504326, AID504355, AID504692, AID504904, AID504905]; format: functional
[10] = target: Delta-type opioid receptor (Homo sapiens, UniProt P41143); test: Counterscreen for agonists of heterodimerization of the mu 1 (OPRM1) and delta 1 (OPRD1) opioid receptors: Luminescence-based cell-based high throughput dose response assay to identify agonists of OPRD1 homodimerization. [Related pubchem assays (depositor defined):AID504326, AID504355, AID504692, AID504904, AID504905]; format: functional
[11] = HepG2 cell cytotoxicity, dose response, cytotoxicity control for Shn3 inhibitor project, CellTiter-Glo, cherry-picked (AID 624134); format: functional, cell-based
Mu-type opioid receptor = Mu-type opioid receptor (Homo sapiens, UniProt P35372); test: Counterscreen for agonists of heterodimerization of the mu 1 (OPRM1) and delta 1 (OPRD1) opioid receptors: Luminescence-based cell-based high throughput dose response assay to identify agonists of OPRM1 homodimerization.; format: functional;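 note: U2OS cells expressing OPRM1 and beta-arrestin as split beta-galactosidase partners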
[12] = Vero E6 cell cytotoxicity, dose response, cytotoxicity control for non-replicating M. tuberculosis project, secondary assay (AID 492998); format: functional, VeroE6; conditions: Vero C1008
cells = format: functional
[13] = cytotoxicity toward NIH3T3 fibroblasts, dose response, counter-screen, cell-based, ATP luminescence, mouse fibroblasts (AID 2010); format: functional;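 note: cells exposed to compound for about 90 hours before reading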
[14] = target: T1, Short transient receptor potential channel 4; test: mouse TRPC4 channel inhibitors, dose response, cell-based, HEK293 TRPC4/mu-opioid, Fluo-4 calcium (AID 434942); format: functional;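 note: potency of inhibitors blocking the TRPC4 calcium response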
[15] = THP-1 cell cytotoxicity, dose response, cytotoxicity control for non-replicating M. tuberculosis project (AID 489025); format: functional
[16] = Shn3 3'UTR reporter inhibitors, dose response, cell-based, Clone20 osteoblasts, firefly luciferase, cherry-picked (AID 624132); format: functional;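 note: firefly luciferase luminescence from reporter carrying the Shn3 3'UTR in osteoblasts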
[17] = control 3'UTR Renilla luciferase suppression, dose response, counter-screen for Shn3 inhibitor project, cell-based, Clone20-Shn3RL, cherry-picked (AID 624133); format: functional
[18] = target: T2, Replicative DNA helicase DnaB (Mycobacterium tuberculosis, UniProt P9WMR3); test: DnaB intein splicing inhibitors, dose response, biochemical, cell-free fluorescence (AID 449749); format: functional
T2 sequence (P9WMR3 whole entry): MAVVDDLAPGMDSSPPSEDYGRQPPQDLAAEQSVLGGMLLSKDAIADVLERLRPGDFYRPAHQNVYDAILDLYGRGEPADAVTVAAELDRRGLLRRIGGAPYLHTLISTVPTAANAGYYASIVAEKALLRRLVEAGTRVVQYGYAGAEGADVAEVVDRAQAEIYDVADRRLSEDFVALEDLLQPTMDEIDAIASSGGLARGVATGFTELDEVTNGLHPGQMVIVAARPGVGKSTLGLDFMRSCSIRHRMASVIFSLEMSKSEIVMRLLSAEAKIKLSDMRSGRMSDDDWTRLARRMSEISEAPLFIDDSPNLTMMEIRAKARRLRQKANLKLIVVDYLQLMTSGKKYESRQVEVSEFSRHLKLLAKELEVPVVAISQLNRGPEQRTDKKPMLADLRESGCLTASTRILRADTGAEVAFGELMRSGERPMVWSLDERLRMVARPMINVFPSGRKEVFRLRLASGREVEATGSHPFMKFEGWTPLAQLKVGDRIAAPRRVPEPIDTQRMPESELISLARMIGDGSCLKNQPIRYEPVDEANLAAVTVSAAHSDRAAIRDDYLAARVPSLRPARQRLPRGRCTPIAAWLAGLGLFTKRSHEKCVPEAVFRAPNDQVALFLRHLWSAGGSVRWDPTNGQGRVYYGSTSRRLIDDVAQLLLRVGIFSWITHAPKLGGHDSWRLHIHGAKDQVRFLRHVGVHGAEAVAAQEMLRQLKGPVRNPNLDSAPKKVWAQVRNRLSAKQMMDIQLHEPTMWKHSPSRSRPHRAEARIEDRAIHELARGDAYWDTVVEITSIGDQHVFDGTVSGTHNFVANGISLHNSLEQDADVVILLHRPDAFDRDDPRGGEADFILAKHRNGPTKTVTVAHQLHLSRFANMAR

Protein RecA = target: T3, Protein RecA (Mycobacterium tuberculosis, UniProt P9WHJ3); test: Fluorescence Cell-Free Homogeneous Dose Retest to Identify Inhibitors of RecA-Intein Splicing Activity. [Related pubchem assays (depositor defined):AID2097, AID2223, AID489010, AID492950]; format: functional
T3 sequence (P9WHJ3 whole entry): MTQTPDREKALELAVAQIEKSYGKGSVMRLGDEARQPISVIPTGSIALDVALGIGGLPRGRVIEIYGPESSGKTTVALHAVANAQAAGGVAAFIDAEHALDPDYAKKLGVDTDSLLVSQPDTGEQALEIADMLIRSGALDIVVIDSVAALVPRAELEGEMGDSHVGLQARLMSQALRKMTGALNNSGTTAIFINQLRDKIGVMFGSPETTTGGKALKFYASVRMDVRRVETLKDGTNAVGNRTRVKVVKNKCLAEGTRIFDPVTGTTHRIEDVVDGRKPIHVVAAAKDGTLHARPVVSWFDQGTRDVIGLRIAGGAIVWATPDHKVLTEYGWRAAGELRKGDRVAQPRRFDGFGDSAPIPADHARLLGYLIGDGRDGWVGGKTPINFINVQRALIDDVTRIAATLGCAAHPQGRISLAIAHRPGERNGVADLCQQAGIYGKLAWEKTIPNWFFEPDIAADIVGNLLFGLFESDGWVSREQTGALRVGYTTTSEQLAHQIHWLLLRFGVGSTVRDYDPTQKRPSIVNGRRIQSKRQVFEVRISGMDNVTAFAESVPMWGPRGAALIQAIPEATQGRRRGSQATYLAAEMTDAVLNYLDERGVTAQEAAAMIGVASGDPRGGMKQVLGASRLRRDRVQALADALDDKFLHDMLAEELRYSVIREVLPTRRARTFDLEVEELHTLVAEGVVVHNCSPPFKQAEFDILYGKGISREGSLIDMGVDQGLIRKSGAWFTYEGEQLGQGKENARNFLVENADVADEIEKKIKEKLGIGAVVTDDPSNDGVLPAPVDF

[19] = target: T4, C-C chemokine receptor type 6 (Homo sapiens, UniProt P51684); test: CCR6 receptor antagonists, dose response, cell-based, luminescent beta-arrestin readout (AID 504728); format: functional
T4 sequence (P51684 whole entry): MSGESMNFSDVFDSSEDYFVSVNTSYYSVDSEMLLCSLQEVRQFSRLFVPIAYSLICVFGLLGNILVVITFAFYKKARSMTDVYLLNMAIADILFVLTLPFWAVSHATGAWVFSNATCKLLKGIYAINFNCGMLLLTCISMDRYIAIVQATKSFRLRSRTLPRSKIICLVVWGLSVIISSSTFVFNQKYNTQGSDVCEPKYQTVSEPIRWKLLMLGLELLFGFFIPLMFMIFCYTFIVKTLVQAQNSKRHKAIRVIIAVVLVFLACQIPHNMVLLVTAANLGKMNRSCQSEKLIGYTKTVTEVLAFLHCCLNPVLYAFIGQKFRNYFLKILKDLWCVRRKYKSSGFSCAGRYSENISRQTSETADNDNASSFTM

Beta-galactosidase = Beta-galactosidase (Escherichia coli, UniProt Q8VNN2); test: beta-galactosidase enzyme inhibitors and activators, dose response, artefact control for CCR6 antagonist project, biochemical, E. coli enzyme, set 3 (AID 504712); format: functional
Caspase-6 = Caspase-6 (Homo sapiens, UniProt P55212); test: human caspase-6 inhibitors, dose response, biochemical, VEID-R110 fluorescence, cherry-pick (AID 720632)
Exodeoxyribonuclease V = Exodeoxyribonuclease V (Escherichia coli (strain K12), UniProt P04993+P07648+P08394); test: E. coli RecBCD inhibitors, dose response, counter-screen for AddAB inhibitor project, absorbance, V66 E. coli, mutant T4 phage (AID 492957); format: functional, cell-based, Escherichia coli str. K-12 substr. MG1655
[20] = Counterscreen for AddAB inhibitors: absorbance-based bacterial cell-based high throughput dose response assay for inhibitors of bacterial viability. [Related pubchem assays (depositor defined):AID435030, AID449728, AID449731, AID488942, AID488955, AID488956]; format: functional

ATP-dependent molecular chaperone HSP82, sequence (C4YTQ8 whole entry): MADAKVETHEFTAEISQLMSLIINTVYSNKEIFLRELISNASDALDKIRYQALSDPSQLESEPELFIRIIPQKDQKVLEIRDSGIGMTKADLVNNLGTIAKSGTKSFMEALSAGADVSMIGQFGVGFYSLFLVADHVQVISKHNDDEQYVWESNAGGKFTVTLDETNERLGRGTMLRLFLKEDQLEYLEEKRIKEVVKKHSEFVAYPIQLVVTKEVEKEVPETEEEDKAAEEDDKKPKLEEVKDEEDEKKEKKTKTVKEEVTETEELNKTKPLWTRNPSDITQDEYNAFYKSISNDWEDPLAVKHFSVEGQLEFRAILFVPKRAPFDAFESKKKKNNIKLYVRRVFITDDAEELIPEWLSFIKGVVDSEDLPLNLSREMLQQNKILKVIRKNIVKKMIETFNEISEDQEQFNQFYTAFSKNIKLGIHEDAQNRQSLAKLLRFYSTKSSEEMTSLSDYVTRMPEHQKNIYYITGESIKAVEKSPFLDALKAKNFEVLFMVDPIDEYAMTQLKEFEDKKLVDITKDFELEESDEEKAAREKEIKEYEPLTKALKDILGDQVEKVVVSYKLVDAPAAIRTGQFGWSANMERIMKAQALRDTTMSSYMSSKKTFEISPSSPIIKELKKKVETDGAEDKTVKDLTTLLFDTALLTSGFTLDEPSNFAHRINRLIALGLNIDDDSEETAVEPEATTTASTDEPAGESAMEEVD
Serine/threonine-protein phosphatase, sequence (B9W6M3 whole entry): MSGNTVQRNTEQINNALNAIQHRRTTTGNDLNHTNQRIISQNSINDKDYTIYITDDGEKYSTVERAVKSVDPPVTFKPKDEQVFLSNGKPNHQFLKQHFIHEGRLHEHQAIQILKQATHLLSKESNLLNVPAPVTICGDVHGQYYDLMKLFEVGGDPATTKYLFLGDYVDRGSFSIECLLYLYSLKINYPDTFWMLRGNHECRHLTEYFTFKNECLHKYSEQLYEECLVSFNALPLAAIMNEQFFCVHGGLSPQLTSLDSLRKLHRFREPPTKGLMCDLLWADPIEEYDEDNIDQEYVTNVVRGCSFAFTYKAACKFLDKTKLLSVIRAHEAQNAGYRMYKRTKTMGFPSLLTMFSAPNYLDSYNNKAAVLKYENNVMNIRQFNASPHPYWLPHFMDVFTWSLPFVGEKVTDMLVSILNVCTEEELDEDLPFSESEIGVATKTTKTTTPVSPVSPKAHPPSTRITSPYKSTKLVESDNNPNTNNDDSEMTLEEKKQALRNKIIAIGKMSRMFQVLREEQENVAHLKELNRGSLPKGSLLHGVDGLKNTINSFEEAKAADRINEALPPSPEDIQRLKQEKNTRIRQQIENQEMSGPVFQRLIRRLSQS
Voltage-gated inwardly rectifying potassium channel KCNH2, sequence (Q12809 whole entry): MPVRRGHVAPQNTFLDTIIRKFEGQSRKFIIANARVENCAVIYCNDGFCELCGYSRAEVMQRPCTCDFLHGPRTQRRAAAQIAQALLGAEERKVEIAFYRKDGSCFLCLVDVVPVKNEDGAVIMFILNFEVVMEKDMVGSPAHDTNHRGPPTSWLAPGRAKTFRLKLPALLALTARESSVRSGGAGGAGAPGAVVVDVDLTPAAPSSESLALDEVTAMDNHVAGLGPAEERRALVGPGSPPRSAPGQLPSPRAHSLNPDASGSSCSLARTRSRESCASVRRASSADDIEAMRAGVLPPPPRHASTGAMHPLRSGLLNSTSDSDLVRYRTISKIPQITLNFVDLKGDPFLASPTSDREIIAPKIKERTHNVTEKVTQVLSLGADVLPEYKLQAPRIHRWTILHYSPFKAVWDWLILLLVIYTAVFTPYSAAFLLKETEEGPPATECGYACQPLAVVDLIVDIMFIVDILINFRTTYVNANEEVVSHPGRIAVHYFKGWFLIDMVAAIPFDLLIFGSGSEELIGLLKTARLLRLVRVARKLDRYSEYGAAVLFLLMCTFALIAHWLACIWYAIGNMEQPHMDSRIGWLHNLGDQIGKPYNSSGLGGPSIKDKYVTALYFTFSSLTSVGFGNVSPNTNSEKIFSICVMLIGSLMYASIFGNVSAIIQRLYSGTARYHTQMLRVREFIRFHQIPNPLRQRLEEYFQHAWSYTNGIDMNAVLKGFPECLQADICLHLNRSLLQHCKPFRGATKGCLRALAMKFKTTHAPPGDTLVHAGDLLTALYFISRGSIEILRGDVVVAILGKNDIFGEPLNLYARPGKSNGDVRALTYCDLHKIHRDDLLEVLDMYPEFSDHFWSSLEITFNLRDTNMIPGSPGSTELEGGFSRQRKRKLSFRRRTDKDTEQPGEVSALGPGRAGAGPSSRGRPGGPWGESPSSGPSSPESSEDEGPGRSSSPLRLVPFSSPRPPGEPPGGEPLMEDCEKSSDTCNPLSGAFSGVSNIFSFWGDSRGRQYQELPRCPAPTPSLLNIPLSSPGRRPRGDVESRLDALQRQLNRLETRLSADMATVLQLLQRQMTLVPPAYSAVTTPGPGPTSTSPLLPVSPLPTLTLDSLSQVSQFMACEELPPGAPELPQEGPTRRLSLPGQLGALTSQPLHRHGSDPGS
5-hydroxytryptamine receptor 5A, sequence (P47898 whole entry): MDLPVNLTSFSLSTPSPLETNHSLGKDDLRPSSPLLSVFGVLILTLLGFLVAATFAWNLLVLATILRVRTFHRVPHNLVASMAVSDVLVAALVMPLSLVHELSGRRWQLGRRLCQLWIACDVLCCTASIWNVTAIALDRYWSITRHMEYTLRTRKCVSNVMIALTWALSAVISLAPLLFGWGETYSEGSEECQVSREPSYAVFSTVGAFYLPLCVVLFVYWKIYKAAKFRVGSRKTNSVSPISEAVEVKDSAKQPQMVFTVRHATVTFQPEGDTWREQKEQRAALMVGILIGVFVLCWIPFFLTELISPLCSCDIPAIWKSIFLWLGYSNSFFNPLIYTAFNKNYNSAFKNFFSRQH
Caspase-6, sequence (P55212 24-179 limits assumed): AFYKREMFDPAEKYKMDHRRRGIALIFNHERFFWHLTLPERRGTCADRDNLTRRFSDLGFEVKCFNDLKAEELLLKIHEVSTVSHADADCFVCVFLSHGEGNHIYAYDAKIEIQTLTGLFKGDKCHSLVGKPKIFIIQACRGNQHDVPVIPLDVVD
Caspase-6, sequence (P55212 194-293 limits assumed): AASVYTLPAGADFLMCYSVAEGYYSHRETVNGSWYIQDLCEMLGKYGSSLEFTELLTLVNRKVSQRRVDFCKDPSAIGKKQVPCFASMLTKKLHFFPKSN
Mu-type opioid receptor, sequence (P35372 whole entry): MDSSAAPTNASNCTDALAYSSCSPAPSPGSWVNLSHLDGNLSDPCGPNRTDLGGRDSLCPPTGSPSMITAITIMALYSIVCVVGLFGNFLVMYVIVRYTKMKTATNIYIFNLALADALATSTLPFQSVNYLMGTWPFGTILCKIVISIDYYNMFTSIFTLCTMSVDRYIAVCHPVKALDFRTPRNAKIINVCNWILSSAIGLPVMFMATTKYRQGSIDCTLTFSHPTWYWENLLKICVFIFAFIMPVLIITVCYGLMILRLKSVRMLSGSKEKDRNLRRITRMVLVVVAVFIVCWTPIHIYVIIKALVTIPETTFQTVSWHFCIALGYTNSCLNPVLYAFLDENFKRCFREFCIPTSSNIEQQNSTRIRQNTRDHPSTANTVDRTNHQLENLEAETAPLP
Delta-type opioid receptor, sequence (P41143 whole entry): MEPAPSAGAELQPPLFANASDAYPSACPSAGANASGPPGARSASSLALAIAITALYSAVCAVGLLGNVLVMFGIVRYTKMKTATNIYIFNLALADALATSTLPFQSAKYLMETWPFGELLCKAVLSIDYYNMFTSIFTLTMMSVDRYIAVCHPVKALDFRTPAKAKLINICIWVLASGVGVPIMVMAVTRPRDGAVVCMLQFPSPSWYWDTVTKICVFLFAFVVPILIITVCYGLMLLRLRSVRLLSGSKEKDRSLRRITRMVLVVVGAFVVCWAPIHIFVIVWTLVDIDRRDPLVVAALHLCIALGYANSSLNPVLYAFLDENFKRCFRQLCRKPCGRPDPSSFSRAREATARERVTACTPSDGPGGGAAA
Beta-galactosidase, sequence (Q8VNN2 whole entry): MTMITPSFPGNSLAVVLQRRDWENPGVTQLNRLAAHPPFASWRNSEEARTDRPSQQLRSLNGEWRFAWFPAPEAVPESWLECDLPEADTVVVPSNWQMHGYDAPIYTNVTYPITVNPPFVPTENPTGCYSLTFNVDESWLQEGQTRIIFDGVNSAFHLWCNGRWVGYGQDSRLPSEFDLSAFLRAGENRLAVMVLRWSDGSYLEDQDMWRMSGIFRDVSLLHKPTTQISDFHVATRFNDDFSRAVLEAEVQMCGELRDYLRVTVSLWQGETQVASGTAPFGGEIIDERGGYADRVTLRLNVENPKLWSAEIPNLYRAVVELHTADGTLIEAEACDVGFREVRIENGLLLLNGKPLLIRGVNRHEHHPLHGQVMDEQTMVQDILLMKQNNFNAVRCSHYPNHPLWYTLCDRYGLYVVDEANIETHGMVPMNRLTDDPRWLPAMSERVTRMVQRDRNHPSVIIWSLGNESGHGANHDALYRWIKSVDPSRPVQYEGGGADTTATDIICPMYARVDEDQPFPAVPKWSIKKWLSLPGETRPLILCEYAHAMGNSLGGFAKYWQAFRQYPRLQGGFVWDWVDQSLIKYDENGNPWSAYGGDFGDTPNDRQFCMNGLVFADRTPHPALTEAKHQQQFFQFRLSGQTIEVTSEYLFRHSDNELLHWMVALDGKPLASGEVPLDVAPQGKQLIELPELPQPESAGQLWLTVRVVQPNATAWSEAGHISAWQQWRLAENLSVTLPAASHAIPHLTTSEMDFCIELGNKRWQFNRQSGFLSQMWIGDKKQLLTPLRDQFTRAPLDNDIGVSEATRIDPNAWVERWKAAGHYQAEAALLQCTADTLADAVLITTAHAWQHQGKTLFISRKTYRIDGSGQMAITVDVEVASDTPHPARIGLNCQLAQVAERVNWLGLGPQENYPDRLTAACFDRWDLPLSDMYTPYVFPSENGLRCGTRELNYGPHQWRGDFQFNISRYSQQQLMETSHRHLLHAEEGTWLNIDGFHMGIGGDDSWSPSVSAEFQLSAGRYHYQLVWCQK

CCCCNCC
AC50 [1]: 31.6 µM (inconclusive)

Cc1cccc(C)c1OCC(N)C(C)C (stereo not drawn)
AC50 [1]: 35.5 µM (inconclusive)

Nc1ccc(CSc2ccc(Cl)cc2)c(Cl)c1
AC50 (HeLa): 75.6 µM (active)

COc1ccc(-c2nnc(-c3ccc4ccccc4c3)o2)cc1
AC50 (HeLa): > 350 µM (inactive)

CCN=C(S)NNC(=O)c1cc(-c2cc(C)ccc2C)nc2ccccc12
EC50 [2]: 129 µM (active)
EC50 [3]: > 180 µM (inactive)
EC50 [4]: > 150 µM (inactive)
EC50 [5]: 0.296 µM (active)

Cc1ccccc1OCC(O)Cn1c(=N)n(Cc2ccccc2)c2ccccc21 (stereo not drawn)
CC50 [6]: 8.06 µM (active)
EC50 [7]: 2.75 µM (active)
EC50 [8]: 3.35 µM (active)
EC50 [9]: > 92.5 µM (inactive)
EC50 [10]: > 92.5 µM (inactive)
AC50 [11]: 11.2 µM (active)
EC50 (Mu-type opioid receptor): > 92.5 µM (inactive)
CC50 [12]: 19.9 µM (active)
IC50 (cells): 18.5 µM (active)
EC50 [13]: > 30 µM (not active)
EC50 [14]: 1.06 µM (active)
CC50 [15]: 7.48 µM (active)
AC50 [16]: 2.25 µM (active)
AC50 [17]: 1.49 µM (active)

O=[N+]([O-])c1cc(O)c2ncccc2c1
AC50 [18]: 6.95 µM (active)
EC50 (Protein RecA): 4.6 µM (active)
IC50 [19]: > 66.6 µM (inactive)
EC50 [2]: 42.1 µM (active)
EC50 [3]: > 180 µM (inactive)
IC50 (Beta-galactosidase): > 66.6 µM (inactive)
AC50 (Caspase-6): 17.3 µM (active)
EC50 [4]: 18.5 µM (active)
EC50 [5]: 0.706 µM (active)
IC50 (Exodeoxyribonuclease V): 62.3 µM (inactive)
IC50 [20]: 41.5 µM (inactive)

— ChEMBL document CHEMBL1201862, “PubChem BioAssay data set” (2004)
